{
  "source": "the NIST ThermoML archive (doi:10.1016/j.jct.2015.07.014)",
  "conditions": "Fluid (supercritical or subcritical phases), Buoyancy - hydrostatic balance with magnetic suspension - one sinker",
  "note": "± gives the expanded uncertainty stated by the source.",
  "data": [
    {"smiles": "O=C=O", "note": "[carbon dioxide]", "values": [
      {"measurement": "mass density", "setting": "323.2 K, 10968 kPa", "result": "497.981 ± 0.29", "unit": "kg/m3"},
      {"measurement": "mass density", "setting": "323.24 K, 14966 kPa", "result": "698.2 ± 0.34", "unit": "kg/m3"},
      {"measurement": "mass density", "setting": "323.24 K, 18962 kPa", "result": "770.445 ± 0.37", "unit": "kg/m3"},
      {"measurement": "mass density", "setting": "323.24 K, 24961 kPa", "result": "833.514 ± 0.4", "unit": "kg/m3"},
      {"measurement": "mass density", "setting": "323.25 K, 12967 kPa", "result": "633.58 ± 0.32", "unit": "kg/m3"},
      {"measurement": "mass density", "setting": "323.25 K, 16965 kPa", "result": "739.597 ± 0.36", "unit": "kg/m3"},
      {"measurement": "mass density", "setting": "323.25 K, 22962 kPa", "result": "815.681 ± 0.39", "unit": "kg/m3"},
      {"measurement": "mass density", "setting": "323.25 K, 26959 kPa", "result": "849.181 ± 0.4", "unit": "kg/m3"},
      {"measurement": "mass density", "setting": "323.25 K, 28037 kPa", "result": "856.967 ± 0.41", "unit": "kg/m3"},
      {"measurement": "mass density", "setting": "323.26 K, 20966 kPa", "result": "795.018 ± 0.38", "unit": "kg/m3"}
    ]}
  ]
}
